The results in this text go back to US8470849B2, “7-azaindole derivatives as selective 11-β-hydroxysteroid dehydrogenase type 1 inhibitors” (Merck Patent GmbH, priority 2007, dated 2013).

Some results are limits rather than exact numbers.

Holding throughout (format): biochemical
For test [1], the target named is T1, rat 11-beta HSD-1 (Rattus norvegicus, UniProt P16232).
T1 construct: Mice and Rat liver microsome fractions were purchased from TEBU; tissue TEBU; host or cells: rat liver microsome fractions
T1 sequence (P16232 whole entry): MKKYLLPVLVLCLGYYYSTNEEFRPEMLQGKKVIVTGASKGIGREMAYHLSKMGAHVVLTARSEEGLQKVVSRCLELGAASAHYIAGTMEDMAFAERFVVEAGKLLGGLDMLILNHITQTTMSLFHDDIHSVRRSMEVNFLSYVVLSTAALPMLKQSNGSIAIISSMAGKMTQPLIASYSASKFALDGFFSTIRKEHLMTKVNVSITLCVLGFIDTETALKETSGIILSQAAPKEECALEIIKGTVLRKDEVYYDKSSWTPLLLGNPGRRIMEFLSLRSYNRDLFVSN
In words: 11beta-HSD1 enzyme assay, rat liver microsome fractions (HTRF cortisol). Particulars: for IC50: read-out: Inhibition of rat 11-beta HSD-1 IC50. As to the method:
(§1) Human recombinant 11 beta-hydroxysteroid dehydrogenase type 1 (11 beta-HSD1) and type 2 (11beta-HSD2) enzymes were expressed in E. Coli. Mice and Rat liver microsome fractions were purchased from TEBU.
(§2) Reactions were initiated by addition of 10 μl 11beta-HSD1 (3 μg) from E. Coli, either as microsome fractions from rat and mice liver (2,5 μg). Following mixing, the plates were shaken for 150 minutes at 37° C. The reactions were terminated with 10 μl Acid-18beta glycyrrhetinic stop solution. Determinations of cortisol levels in 11 beta-HSD1 preparations were monitored by HTRF (HTRF cortisol assay from C is bio international).

Test [2] has as its target T2, mouse 11-beta HSD-1 (Mus musculus, UniProt P50172).
T2 construct: Mice and Rat liver microsome fractions were purchased from TEBU; tissue TEBU; host or cells: mouse liver microsome fractions
In words: 11beta-HSD1 enzyme assay, mice liver microsome fractions (HTRF cortisol). To be noted: for IC50: read-out: Inhibition of mouse 11-beta HSD-1 IC50. The protocol: as §1, §2
(In general: Liver microsomes are a subcellular fraction often used to study metabolism.)

In test [3] the target is T3, human 11-beta HSD-1 (Homo sapiens, UniProt P28845).
T3 construct: made in house; host or cells: E. coli
T3 sequence (P28845 whole entry): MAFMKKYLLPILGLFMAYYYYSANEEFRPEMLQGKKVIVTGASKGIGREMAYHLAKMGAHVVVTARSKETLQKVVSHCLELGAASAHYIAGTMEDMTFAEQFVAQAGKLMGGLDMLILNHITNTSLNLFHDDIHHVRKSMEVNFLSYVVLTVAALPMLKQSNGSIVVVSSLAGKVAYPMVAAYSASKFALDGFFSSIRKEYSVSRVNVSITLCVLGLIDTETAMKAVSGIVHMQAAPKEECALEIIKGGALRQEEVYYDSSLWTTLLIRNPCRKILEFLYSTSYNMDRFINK
In words: 11beta-HSD1 enzyme assay, human recombinant enzyme (HTRF cortisol). Particulars: for IC50: human recombinant enzyme from E. Coli, cortisone/NADPH, 150 minutes at 37° C., read-out: Inhibition of human 11-beta HSD-1 IC50; for Selectivity Ratio human HSD2/HSD1: ratio of IC50 human HSD2 to human HSD1. As to the method:
as §1, §2
Background: TR-FRET usually uses a lanthanide donor and a delayed reading to cut background.

For test [4], the target named is T4, human 11-beta HSD-2 (Homo sapiens, UniProt P80365).
T4 construct: made in house; host or cells: E. coli
T4 sequence (P80365 1-405): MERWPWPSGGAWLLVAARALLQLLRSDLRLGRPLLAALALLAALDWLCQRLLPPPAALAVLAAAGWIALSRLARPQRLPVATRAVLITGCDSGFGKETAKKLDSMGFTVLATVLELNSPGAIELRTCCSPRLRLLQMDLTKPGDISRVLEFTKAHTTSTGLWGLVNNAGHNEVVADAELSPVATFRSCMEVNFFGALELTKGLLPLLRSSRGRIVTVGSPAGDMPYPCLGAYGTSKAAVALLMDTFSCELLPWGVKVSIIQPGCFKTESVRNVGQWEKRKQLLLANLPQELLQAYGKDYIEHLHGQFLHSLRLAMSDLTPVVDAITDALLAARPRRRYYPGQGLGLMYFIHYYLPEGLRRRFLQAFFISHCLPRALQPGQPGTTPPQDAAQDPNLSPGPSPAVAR
In words: 11beta-HSD2 enzyme assay, human recombinant enzyme. To be noted: cortisol/NAD, read-out: Inhibition of human 11-beta HSD-2 IC50.
Description: as §1

T2 sequence (P50172 whole entry): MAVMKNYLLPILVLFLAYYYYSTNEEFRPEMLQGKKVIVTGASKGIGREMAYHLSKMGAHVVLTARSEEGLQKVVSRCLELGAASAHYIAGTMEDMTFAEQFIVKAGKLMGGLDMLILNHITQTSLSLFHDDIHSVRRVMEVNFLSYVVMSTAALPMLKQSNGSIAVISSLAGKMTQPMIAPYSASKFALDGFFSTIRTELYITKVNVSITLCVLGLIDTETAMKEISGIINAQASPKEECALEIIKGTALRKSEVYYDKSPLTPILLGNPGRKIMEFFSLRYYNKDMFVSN

As to `O=C(C1CCCCC1)N1CCC(c2c[nH]c3ncccc23)C1` (stereo not shown) [Ex. 3, (Cycloxexyl)-[3-(1H-pyrrolo[2,3-b]pyridine-3-yl)-pyrrolidine-1-yl]-methanone], the IC50 (in general, the concentration at which inhibition is half-maximal) came to 0.51 µM in test [1], 0.95 µM in test [2] and 0.54 µM in test [3].

`CN(C)c1ccc(C(=O)N2CCC(c3c[nH]c4ncccc34)C2)cc1` (stereo not shown) [Ex. 7, (4-Dimethylaminophenyl)-[3-(1H-pyrrolo[2,3-b]pyridine-3-yl)-pyrrolidine-1-yl]-methanone]: the IC50 is 0.043 µM in test [1], 0.17 µM in test [2] and above 10 µM in test [4].

Regarding `O=C(N1CCC(c2c[nH]c3ncccc23)C1)C1(c2ccccc2)CC1` (stereo not shown) [Ex. 8, (1-Phenyl-cyclopropyl)-[3-(1H-pyrrolo[2,3-b]pyridine-3-yl)-pyrrolidine-1-yl]-methanone], the concentration for half-maximal inhibition (IC50) in test [1] came out at 0.048 µM. Moreover, in test [3], the IC50 was 0.05 µM and the “Selectivity Ratio human HSD2/HSD1” value is above 200.

As to `CC(C)(C(=O)N1CCC(c2c[nH]c3ncccc23)C1)c1ccc(Cl)cc1` (stereo not shown) [Ex. 9, 2-(4-Chlorophenyl)-2-methyl-1-[3-(1H-pyrrolo[2,3-b]pyridine-3-yl)-pyrrolidine-1-yl]-propan-1-one], the IC50 in test [1] was 0.92 µM; in test [3], 0.0098 µM. For the same molecule, in test [3], the Selectivity Ratio human HSD2/HSD1 is above 1000.

With `CC(C)(C(=O)N1CCC(c2c[nH]c3ncccc23)CC1)N1CCN(c2ccc(C(F)(F)F)cn2)CC1` [Ex. 13, 2-Methyl-1-[4-(1H-pyrrolo[2,3-b]pyridin-3-yl)-piperidine-1-yl]-2-[4-(5-trifluoromethyl-pyridine-2-yl)-piperazine-1-yl]-propan-1-one], the half-inhibitory concentration (IC50) in test [3] is 1.14 µM.

Turning to `CC(C)(COc1ccc(F)cc1)CC(=O)N1CCC(c2c[nH]c3ncccc23)CC1` [Ex. 14, 4-(4-Fluoro-phenoxy)-3,3-dimethyl-1-[4-(1H-pyrrolo[2,3-b]pyridine-3-yl)-piperidine-1-yl]-butan-1-one], the “Inhibition of rat 11-beta HSD-1, activity in % of Ctrl” value in test [1] (at 1 μM) is recorded as 85% of Ctrl. Also, in test [2] (at 1 μM), the “Inhibition of mouse 11-beta HSD-1, activity in % of Ctrl” value is given as 86% of Ctrl. The IC50 in test [3] was determined as 0.11 µM.

Take `CC(C)(COc1ccc(F)cc1)CC(=O)N1CCC(c2c[nH]c3ncccc23)C1` (stereo not shown) [Ex. 17, 4-(4-Fluoro-phenoxy)-3,3-dimethyl-1-[3-(1H-pyrrolo[2,3-b]pyridine-3-yl)-pyrrolidine-1-yl]-butan-1-one]: the 50% inhibitory concentration (IC50) was 2.1 µM in test [2] and 0.016 µM in test [3].

As to `O=C(CS(=O)(=O)c1ccc(Cl)cc1)N1CCC(c2c[nH]c3ncccc23)C1` (stereo not shown) [Ex. 20, 2-(4-Chloro-benzenesulfonyl)-1-[3-(1H-pyrrolo[2,3-b]pyridine-3-yl)-pyrrolidine-1-yl]-ethanone], the IC50 in test [3] amounted to 0.029 µM.
